Tested on: Rattus norvegicus
[1] = acute, duration: 4 hours, inhalation, M, CD, Ocular: Corneal opacity and corrosion
[2] = acute, duration: 15 hours, inhalation, F, Sprague-Dawley, Body Weight: 12% decrease weight gain on GDs 6-15
[3] = acute, duration: 1 days, dermal, M/F, CD, Dermal: Mild skin irritation
[4] = chronic, duration: 2 years, oral, F, Sprague-Dawley, Body Weight: […] lower terminal body weight
[5] = chronic, duration: 2 years, oral, M/F, Sprague-Dawley, Hepatic: Increased serum ALT and AST at ?[…] / hepatocellular hypertrophy at 15 mg/kg/day / hepatocellular necrosis at 15 mg/kg/day only …
[6] = chronic, duration: 2 years, oral, M, Sprague-Dawley, Reproductive: Vascular mineralization in the testes
[7] = developmental, duration: 15 hours, inhalation, F, Sprague-Dawley, Developmental: 10% decreased neonatal body weight on PND 1
[8] = reproduction developmental, duration: 90 days, oral, M/F, Sprague-Dawley, Body Weight: >11% reduced body weight
[9] = reproduction developmental, duration: 90 days, oral, M/F, Sprague-Dawley, Hepatic: Increased absolute and relative liver weight in P-generation (36%) and F1-generation (30%) males / hepatocellular hypertrophy and …
[10] = short-term, duration: 2 weeks, inhalation, M, CD, Body Weight: 7% lower body weight on exposure day 5
[11] = short-term, duration: 14 days, oral, M, Body Weight: 24% decrease in overall body weight gain
[12] = short-term, duration: 14 days, oral, M, CD, Body Weight: 14% lower final body weight
[13] = short-term, duration: 14 days, oral, M, CD, Body Weight: 14% reduction in final body weight
[14] = short-term, duration: 14 days, oral, M, CD, Reproductive: 2-fold increase in serum estradiol
[15] = short-term, duration: 14 days, oral, M, CD, Reproductive: 63% increase in serum estradiol

## O=C([O-])C(F)(F)C(F)(F)C(F)(F)C(F)(F)C(F)(F)C(F)(F)C(F)(F)F.[NH4+] [Ammonium perfluorooctanoate]
acute, duration: 1 hours, inhalation, M/F, albino, Neurological: Excessive salivation + Ocular: Red material around the eyes / lacrimation + Respiratory: Red nasal discharge / dry rales
  LOAEL: 18600 mg/m3
acute, duration: 4 hours, inhalation, M, CD, Body Weight: Weight loss for 1-2 days after exposure (data not shown) + Respiratory: Pulmonary edema
  LOAEL: 380 mg/m3
acute, duration: 4 hours, inhalation, M, CD, Death: LC50
  LOAEL: 980 mg/m3
acute, duration: 4 hours, inhalation, M, CD, Gastrointestinal: Stomach irritation
  LOAEL: 380 mg/m3
acute, duration: 4 hours, inhalation, M, CD, Hepatic: Liver enlargement at 810 mg/m3 / no histological alterations
  NOAEL: 810 mg/m3
[1]
  LOAEL: 810 mg/m3
  NOAEL: 380 mg/m3
[2]
  LOAEL: 10 mg/m3
  NOAEL: 1 mg/m3
acute, duration: 15 hours, inhalation, F, Sprague-Dawley, Death: 3/12 deaths on GDs 12, 13, and 17
  LOAEL: 25 mg/m3
acute, duration: 15 hours, inhalation, F, Sprague-Dawley, Hepatic: 18% increase absolute liver weight at 25 mg/m3
  NOAEL: 25 mg/m3
acute, duration: 1 days, dermal, M/F, CD, Body Weight: 5-7% transient weight loss
  LOAEL: 3000 mg/kg-day
[3]
  LOAEL: 5000 mg/kg-day
  NOAEL: 3000 mg/kg-day
acute, duration: 1 days, dermal, M, CD, Death: 14-day LD50
  LOAEL: 7000 mg/kg-day
acute, duration: 1 days, oral, F, albino, Death: LD50
  LOAEL: 430 mg/kg-day
acute, duration: 1 days, oral, M, albino, Death: LD50
  LOAEL: 680 mg/kg-day
chronic, duration: 1 years, oral, M, CD, Body Weight: >10% reduced weight gain + Reproductive: Significant increase in serum estradiol at 1, 3, 6, 9, and 12 months (~100-180%) / …
  LOAEL: 13.6 mg/kg-day
chronic, duration: 1 years, oral, M, CD, Hepatic: Increased relative liver weight
  NOAEL: 13.6 mg/kg-day
chronic, duration: 2 years, oral, F, Sprague-Dawley
  NOAEL: 15 mg/kg-day
[4]
  LOAEL: 15 mg/kg-day
  NOAEL: 1.5 mg/kg-day
chronic, duration: 2 years, oral, M/F, Sprague-Dawley
  NOAEL: 15 mg/kg-day
[5]
  LOAEL: 15 mg/kg-day
  NOAEL: 1.5 mg/kg-day
chronic, duration: 2 years, oral, M/F, Sprague-Dawley, Other Cancer: CEL: testicular Leydig cell adenomas
  LOAEL: 15 mg/kg-day
chronic, duration: 2 years, oral, M, CD, Body Weight: >10% reduction in weight gain most of the study + Other: Increased incidence of acinar cell + Reproductive: Increased incidence…
  LOAEL: 13.6 mg/kg-day
chronic, duration: 2 years, oral, M, CD, Cancer: CEL: testicular Leydig cell adenomas and pancreatic acinar cell adenomas
  LOAEL: 13.6 mg/kg-day
chronic, duration: 2 years, oral, M, CD, Hepatic: Increased relative liver weight
  NOAEL: 13.6 mg/kg-day
chronic, duration: 2 years, oral, M, Sprague-Dawley, Other Noncancer: Inflammation of the salivary gland
  LOAEL: 1.5 mg/kg-day
[6]
  LOAEL: 15 mg/kg-day
  NOAEL: 1.5 mg/kg-day
[7]
  LOAEL: 25 mg/m3
  NOAEL: 10 mg/m3
developmental, duration: 10 days, oral, F, Sprague-Dawley, Developmental: No alterations in fetal body weight or teratology
  NOAEL: 100 mg/kg-day
developmental, duration: 90 days, oral, M/F, Sprague-Dawley, Developmental: Increased number of dead pups on PNDs 6-8
  LOAEL: 30 mg/kg-day
developmental, duration: 90 days, oral, M/F, Sprague-Dawley, Developmental: Increased number of dead pups on PNDs 6-8 + Endocrine: Vacuolation of zona glomerulosa of adrenal gland
  NOAEL: 10 mg/kg-day
Reproduction developmental, duration: 10 days, oral, F, Sprague-Dawley, Body Weight: 33% reduced maternal body weight gain
  LOAEL: 100 mg/kg-day
[8]
  LOAEL: 10 mg/kg-day
  NOAEL: 3 mg/kg-day
Reproduction developmental, duration: 90 days, oral, M/F, Sprague-Dawley, Endocrine: Vacuolation of zona glomerulosa of adrenal gland
  LOAEL: 30 mg/kg-day
[9]
  LOAEL: 3 mg/kg-day
  NOAEL: 1 mg/kg-day
Reproduction developmental, duration: 90 days, oral, M/F, Sprague-Dawley, Reproductive: No alteration in reproductive performance in P0 or F1 generation
  NOAEL: 30 mg/kg-day
short-term, duration: 2 weeks, dermal, M, CD
  NOAEL: 2000 mg/kg-day
short-term, duration: 2 weeks, dermal, M, CD, Body Weight: 14% weight loss
  LOAEL: 200 mg/kg-day
short-term, duration: 2 weeks, dermal, M, CD, Body Weight: 14% weight loss + Dermal: Skin irritation / acute necrotizing dermatitis
  NOAEL: 20 mg/kg-day
short-term, duration: 2 weeks, dermal, M, CD, Hepatic: Foci of coagulative necrosis
  LOAEL: 20 mg/kg-day
[10]
  LOAEL: 84 mg/m3
  NOAEL: 7.6 mg/m3
short-term, duration: 2 weeks, inhalation, M, CD, Hepatic: Increased absolute and relative liver weight / hepatocellular hypertrophy at 7.6 mg/m3 + Neurological: No histological alterations…
  NOAEL: 84 mg/m3
short-term, duration: 7 days, oral, M, Sprague-Dawley, Body Weight: 17% weight loss
  LOAEL: 50 mg/kg-day
short-term, duration: 7 days, oral, M, Sprague-Dawley, Hepatic: 2-fold increase in relative and absolute liver weight
  NOAEL: 50 mg/kg-day
short-term, duration: 7 days, oral, M, Sprague-Dawley, Hepatic: Increased liver weight, decreased serum cholesterol, triglyceride, hepatocellular hypertrophy at ?18 mg/kg/day
  NOAEL: 23 mg/kg-day
short-term, duration: 7 days, oral, M, Wistar, Hepatic: 66% increase in absolute liver weight
  NOAEL: 16 mg/kg-day
[11]
  LOAEL: 3 mg/kg-day
  NOAEL: 1 mg/kg-day
[12]
  LOAEL: 20 mg/kg-day
  NOAEL: 2 mg/kg-day
[13]
  LOAEL: 25 mg/kg-day
  NOAEL: 10 mg/kg-day
short-term, duration: 14 days, oral, M, CD, Hepatic: 34% increase in absolute and relative liver we
  NOAEL: 40 mg/kg-day
short-term, duration: 14 days, oral, M, CD, Hepatic: 46% increase in relative liver weight at ?10 mg/kg/day
  NOAEL: 50 mg/kg-day
[14]
  LOAEL: 2 mg/kg-day
  NOAEL: 0.2 mg/kg-day
[15]
  LOAEL: 10 mg/kg-day
  NOAEL: 1 mg/kg-day
short-term, duration: 14 days, oral, M, CD, Reproductive: 184% increase in serum estradiol
  LOAEL: 25 mg/kg-day

Source: EPA's ToxValDB 9.5
